Results published in patent US9359314B2, “Thiazine amide derivative and pharmaceutical composition and use thereof” (Institute Of Pharmacology And Toxicology Academy Of …, priority 2012, dated 2016).

Key:
[1] = test system: MDCK-MDR1 cells
Excerpt: MDCK-MDR1 cells are monolayer cells with high expression of a P-gp transporter after MDR1 genes are transfected in MDCK (Madin-Darby canine kidney epithelial cells). Due to the compactness of the monolayer cells and high expression of a pharmaceutical efflux protein, the cells have a similarity to the structure of the blood-brain barrier (BBB), and can be used as one of the models for evaluating the BBB permeability. Because the compounds of the present invention targeted at the central nervous system and were needed to permeate the BBB, the MDCK-MDR1 cells were applied to research the membrane permeability, and the BBB permeability was preliminarily evaluated.
The cryopreserved MDCK-MDR1 cells were fast thawed in a 37° C. water bath. The postthawed cells were added into a DMEM culture medium containing 10% FBS, cultured in an incubator at 37° C., 5% CO2, with the relative humidity of 90%, and the culture medium was replaced every other day. After 1-2 days' growth for cell fusion, the cells were digested at 37° C., with the mixed digestion solution of 0.25% trysin-EDTA (0.2%), and subcultured according to a certain ratio, wherein the cells used for the experiment are 40˜60-generation cells.
When 80% of the cells were fused, the cells were suspended with a complete culture medium, and inoculated into a Millicell plate according to 1×10^6-mL^−1. The culture solution was changed once every two days, then once every day after 1 week. After cultured for 5 days, the cells were ready for transport experiment when the resistance achieves a platform (>2000 Ω·cm^2).
The solution in the lower pools was collected at 0, 30, 90 and 120 min and stored at −20° C. for later measurement. The permeation amount of the Rho-123 in the lower pools was detected by a fluorescence spectrophotometer, wherein the transmission wavelength was set to […] and the excitation wavelength was set to 530 nm.
The Millicell inoculated with cells was soaked with HBSS solution at 37° C. for an appropriate time before the test, and slightly flushed to remove matters attached on the surfaces of the cells. […] Each concentration was repeated in three wells, the sample was precisely added with 50 μL of internal standard solution and 350 μL of ethyl acetate, shaked and uniformly mixed, centrifugated at 12000 rmp for 5 min, 300 μL of supernatant was took, volatilized to dryness, re-dissolved with 50 μL of acetonitrile and 10 μL was took for sampling and determination. Permeability from the basal surface to the cavity surface: drug was added from the basolateral side (BL), while the blank HBSS solution was added from the apical side (AP), and the following steps were same as those in the permeability test from the cavity surface to the basal surface.
The apparent permeability coefficient (Papp) of the drug reflected the capability of permeating the monolayer cells of the drug and the absorption speed and degree of the drug, which can be calculated by the following formula: […]
wherein, ΔQ was the permeation amount of the drug in a Δt time period, A was the surface area of the cells, namely the area (0.6 cm^2) of a support membrane in the model, and CO was the initial concentration. The unit of the Papp was commonly represented by cm·h^−1 or cm·s^−1.
The sample was detected by LC/MS. Concentration of each sample was quantified with a standard curve (50 nM-10000 nM).

[2] = test system: BCAO-LBP mice; test: Anti incomplete cerebral ischemia effect in mouse bilateral carotid artery occlusion with low blood pressure (BCAO-LBP) model, intragastric administration; format: in vivo, Kunming mice; conditions: 30 mg/kg i.g once per day for 3 d, x ± SEM; for Neural deficit score: medium group 3.92 ± 0.25; for MDA content: whole brain, medium group 40.94 ± 1.754
Excerpt: The example, which took Kunming mice as experimental subjects, investigated the protection of prevention administration of the compound of the present invention against incomplete cerebral ischemia of mice, through intravenous and intragastric administration, on mouse bilateral carotid artery occlusion with low blood pressure (BCAO-LBP) model, by measuring neurological function score and MDA content in brain.
2.1.2 Preparation of drug for intragastric administration: the compound of the present invention was made into 30 mg/kg by using 0.7% CMC-Na, fully and uniformly mixed with sonication to afford a solution of 1.5 mg/ml. Intragastric (i.g) administration was performed according to 0.2 ml/10 g.
28 mice which had adapted to the laboratory environment for one week were divided into balanced groups according to body weight, i.g administered respectively with 0.7% CMC-Na or the compound of the present invention, once per day for continuous 3 d. The specific groups were as follows:
drug group: 12 mice, with i. g of solution of compounds of the present invention separately, wherein the dosage was 30 mg/kg
2.3.1 Mouse bilateral carotid artery ligation: the mouse was performed with orbit bloodletting (about 30% of the total blood volume of the mouse) to lower the blood pressure 1 h later after last administration, then the mouse was fixed on an operation plate in a supine position, and an incision in the middle of the neck was made. The common carotid artery was exposed with blunt separation, and 2 sutures were prepared under each end of the exposed artery, and both end of the artery were ligatured, respectively. When the ligation was completed for the […], started timing, then cut the common carotid artery between the two ligations, and the incision was sutured. In the sham operation group, the common carotid artery was separated without ligation. The mouse was rapidly released after the operation, the behavior in 6 h and the death time of the mouse was observed and recorded (scored by a blind method according to the following table). The brain was quickly took out after death, the cerebellum was removed, and the MDA content in the whole brain was determined by a TBA method.
The brain of a mouse was taken out, weighted, prepared into 15% brain homogenate with N.S, 1.2 ml of the homogenate was taken out and put into a 37° C. water bath for 1 h (shaked once every 10 min), then taken out from water, added with 0.6 ml of 20% trichloroacetic acid, uniformly mixed, and stood for 10 min, centrifugated at 2000 r for 10 min, 1.2 ml of supernatant fluid was added with 0.6 ml of 0.67% TBA, and put into a boiling water bath for 10 min, then cooled, and OD value was determined at 532 nm.
Experimental data was represented by x±SEM, SPSS13.0 statistical software was applied, homogeneity of variance was judged by single-factor variance analysis. The homogeneity of variance was tested by LSD, the non-homogeneity of variance was tested by Dunnett's T3, the significant differences between the groups were compared and P<0.05 represented a statistical significance.

[3] = test system: chicken embryonic dorsal root ganglia; test: Neurotrophic activity: in-vitro serum-free culture model of chicken embryonic dorsal root ganglia, neurite growth score; format: cell-based; conditions: 48 h, score 0-3, control 0.33
Description: The neurotrophic activity of the compound of the present invention can be reflected on a variety of in-vitro biological models, such as an in-vitro serum-free culture model of chicken embryonic dorsal root ganglia. Chicken embryo incubated for 8 d was used, and spine and ganglia on the two sides were exposed under a dissecting microscope in sterile environment. The dorsal root ganglia was picked one by one with tweezers, inoculated into culture bottles laid with rat tail collagen according to 5-6 dorsal root ganglia per bottle, two bottles were prepared per dose, and cultured at 37° C., 5% of CO2, for 1 h in an incubator for adherence, then added with a serum-free culture medium DMEM containing NGF (0.15 ng/mL) and the compound of the present invention, while the control group was only added with the culture medium and the same dose of NGF. After being cultured in the incubator for 48 h, the growth of the neurite around dorsal root ganglia was observed under an inverted phase contrast microscope and scored according to the length and density of the neurite, wherein 0 point represents no neurite; 1 point represents the neurite was sparse; 2 points represent the neurite was relatively long or dense; and 3 points represent the neurite was long and dense. The score of the growth of neurite of chicken embryonic dorsal root ganglion under the promotion of the compound of the present invention with different dosage was shown in table 1, wherein each score is an average of five dorsal root ganglia.

[4] = compound 1 pM + NGF (0.15 ng/mL)
[5] = compound 100 pM + NGF (0.15 ng/mL)

SMILES: Cc1ccc(S(=O)(=O)N2CCSC[C@H]2C(=O)N[C@H](CC(C)C)C(=O)O)cc1 (hydrate or solvate) [Example 10, (2R)-4-Methyl-2-{[(3R)-4-(toluene-4-sulfonyl)-thiomorpholine-3-carbonyl]-amino}-pentanoic acid]
- melting point: 87 to 89 °C

SMILES: CCOC(=O)[C@H](CC(C)C)NC(=O)[C@@H]1CSCCN1S(=O)(=O)c1ccc(C)cc1 [Example 5, (2S)-4-Methyl-2-{[(3R)-4-(toluene-4-sulfonyl)-thiomorpholine-3-carbonyl]-amino}-pentanoic acid ethyl ester]
- Papp(×10^−6) [1]: 8.38 ×10^−6
- Neural deficit score [2]: 3.62 ± 0.31
- MDA content [2]: 36.09 ± 1.85 nmol/g
- Mean score (growth of neurite of chicken embryonic dorsal root ganglion) [3, 4]: 0.65
- Mean score (growth of neurite of chicken embryonic dorsal root ganglion) [3, 5]: 1.55

SMILES: Cc1ccc(S(=O)(=O)N2CCSC[C@H]2C(=O)N[C@H](CC(C)C)C(=O)OC(C)C)cc1 [Example 8, (2R)-4-Methyl-2-{[(3R)-4-(toluene-4-sulfonyl)-thiomorpholine-3-carbonyl]-amino}-pentanoic acid isopropyl ester]
- Papp(×10^−6) [1]: 39.5 ×10^−6
- Neural deficit score [2]: 2.67 ± 0.31
- MDA content [2]: 33.27 ± 1.91 nmol/g
- Mean score (growth of neurite of chicken embryonic dorsal root ganglion) [3, 4]: 1.68
- Mean score (growth of neurite of chicken embryonic dorsal root ganglion) [3, 5]: 2.25

SMILES: CCOC(=O)[C@@H](CC(C)C)NC(=O)[C@@H]1CSCCN1S(=O)(=O)c1ccc(C)cc1 [Example 6, (2R)-4-Methyl-2-{[(3R)-4-(toluene-4-sulfonyl)-thiomorpholine-3-carbonyl]-amino}-pentanoic acid ethyl ester]
- Papp(×10^−6) [1]: 19.2 ×10^−6
- Neural deficit score [2]: 3.08 ± 0.40
- MDA content [2]: 30.87 ± 0.95 nmol/g
- Mean score (growth of neurite of chicken embryonic dorsal root ganglion) [3, 4]: 1.23
- Mean score (growth of neurite of chicken embryonic dorsal root ganglion) [3, 5]: 1.88

SMILES: CCCOC(=O)[C@@H](CC(C)C)NC(=O)[C@@H]1CSCCN1S(=O)(=O)c1ccc(C)cc1 [Example 7, (2R)-4-Methyl-2-{[(3R)-4-(toluene-4-sulfonyl)-thiomorpholine-3-carbonyl]-amino}-pentanoic acid propyl ester]
- Papp(×10^−6) [1]: 49.8 ×10^−6
- Neural deficit score [2]: 2.91 ± 0.28
- MDA content [2]: 34.90 ± 1.65 nmol/g
- Mean score (growth of neurite of chicken embryonic dorsal root ganglion) [3, 4]: 1.46
- Mean score (growth of neurite of chicken embryonic dorsal root ganglion) [3, 5]: 1.95

SMILES: Cc1ccc(S(=O)(=O)N2CCSC[C@H]2C(=O)N[C@H](CC(C)C)C(=O)OCc2ccccc2)cc1 [Example 9, (2R)-4-Methyl-2-{[(3R)-4-(toluene-4-sulfonyl)-thiomorpholine-3-carbonyl]-amino}-pentanoic acid benzyl ester]
- Papp(×10^−6) [1]: 12.4 ×10^−6
- melting point: 91 to 93 °C

SMILES: Cc1ccc(S(=O)(=O)N2CCSC[C@H]2C(=O)N[C@H](CC(C)C)C(=O)O)cc1 [Example 10, (2R)-4-Methyl-2-{[(3R)-4-(toluene-4-sulfonyl)-thiomorpholine-3-carbonyl]-amino}-pentanoic acid]
- Papp(×10^−6) [1]: 34.1 ×10^−6
